Details: on exposure to air; "stable" = non-hygroscopic, does not pick up moisture even in a highly humid atmosphere
Description: According to another aspect of the present invention, there is provided anhydrous bosentan.

COc1ccccc1Oc1c(NS(=O)(=O)c2ccc(C(C)(C)C)cc2)nc(-c2ncccn2)nc1OCCO [Form B, Bosentan Form B]
stability / hygroscopicity (moisture pick-up): stable and non-hygroscopic

Reference: US8481730B2, “Method of synthesis of Bosentan, its polymorphic forms and its salts” (CIPLA Limited, priority 2008, dated 2013)
